Test [1] has as its system PTEN null line. In words: CellTiter-Glo combination assay with docetaxel (FIG. 19). Format: cell-based. An excerpt:
Viable cells are reflected in relative luminescence units (RLU).
On the technique in general: In ATP-based viability assays light output follows the ATP content of the culture.

The subject of test [2] is LuCap35V primary human prostate tumor model. In words: In vivo tumor xenograft efficacy, LuCap35V (FIG. 1). Further details: species or system mice. An excerpt: FIG. 1 illustrates results for the compound of Example 2 and docetaxel in LuCap35V primary prostate tumors. FIG. 2 illustrates results for the compound of Example 2 dosed intermittently either PO or IP and docetaxel in PC3-NCI prostate tumors. FIG. 3 illustrates results for the compound of Example 2 dosed PO and docetaxel in PC3-NCI prostate tumors. FIG. 4 illustrates results for the compound of Example 2 dosed IP intermittently and docetaxel in MCF7-neo/HER2 tumors. FIG. 5 illustrates results for the compound of Example 2 dosed PO and docetaxel in MCF7-neo/HER2 breast tumors. FIG. 6 illustrates results for the compound of Example 2 and docetaxel in MAXF401 mammary tumors. FIG. 7 illustrates results for the compound of Example 2 and docetaxel in SKOV3 ovarian tumors. FIG. 8 illustrates results for the compound of Example 2 and cisplatnin in SKOV3 ovarian tumors. FIG. 9 illustrates results for the compound of Example 2 dosed PO and carboplatin in IGROV-1 ovarian tumors. FIG. 10 illustrates results for the compound of Example 2 and GDC-0973 at 2.5 mg/kg in H2122 NCI-NSCL tumors. FIG. 11 illustrates results for the compound of Example 2 and GDC-0973 at 5.0 mg/kg in NCI-H2122 NSCLC tumors. FIG. 12 illustrates results for the compound of Example 2 and GDC-0973 at 7.5 mg/kg in NCI-H2122 NSCLC tumors. FIG. 13 illustrates results for the compound of Example 2 and MDV3100 in LuCap35V tumors.

Test [3] relates to prostate specific antigen serum levels. Particulars: after a month of taking the medicine; cited from earlier work.
For test [4] the following is noted: active metabolite vs irinotecan itself; cited from earlier work.

SMILES strings stand for the structures.

In the case of `CC(C)NC[C@@H](C(=O)N1CCN(c2ncnc3c2[C@H](C)C[C@H]3O)CC1)c1ccc(Cl)cc1` [Example 2, (S)-2-(4-chlorophenyl)-1-(4-((5R,7R)-7-hydroxy-5-methyl-6,7-dihydro-5H-cyclopenta[d]pyrimidin-4-yl)piperazin-1-yl)-3-(isopropylamino)propan-1-one], the single agent response result in test [1] is reported as “minimal single agent response”. Also, the “tumor response (FIG. 1)” value in test [2] was “tumor stasis”.
`CNC(=O)c1ccc(N2C(=S)N(c3ccc(C#N)c(C(F)(F)F)c3)C(=O)C2(C)C)cc1F` [MDV3100, 4-(3-(4-cyano-3-(trifluoromethyl)phenyl)-5,5-dimethyl-4-oxo-2-thioxoimidazolidin-1-yl)-2-fluoro-N-methylbenzamide]: in test [3], the “decrease in prostate specific antigen serum levels” value is reported as ≤ 89%.
As for `CCc1c2c(nc3ccc(O)cc13)-c1cc3c(c(=O)n1C2)COC(=O)[C@]3(O)CC` [SN-38, 7-ethyl-10-hydroxy-camptothecin], the “activity relative to irinotecan” value in test [4] is listed as 200 times.
Regarding `CC(=O)O[C@@]12CO[C@@H]1C[C@H](O)[C@@]1(C)C(=O)[C@H](O)C3=C(C)[C@@H](OC(=O)[C@H](O)[C@@H](NC(=O)OC(C)(C)C)c4ccccc4)C[C@@](O)([C@@H](OC(=O)c4ccccc4)[C@H]21)C3(C)C` [docetaxel, (2R,3S)—N-carboxy-3-phenylisoserine, N-tert-butyl ester, 13-ester with 5, 20-epoxy-1,2,4,7,10,13-hexahydroxytax-11-en-9-one 4-acetate 2-benzoate, trihydrate], the “tumor response (FIG. 1)” value in test [2] is given as “tumor stasis”.

Values taken from US9150548B2, “Combinations of AKT inhibitor compounds and vemurafenib, and methods of use” (Genentech, Inc., priority 2011, dated 2015).
